Entries after “also recorded” stand apart in the source; their conditions may differ.
Assays:
α-glucosidase [1] = molecular target: T1, α-glucosidase (Saccharomyces cerevisiae, UniProt P53341); settings: cited from earlier work
T1 construct: purchased Sigma-Aldrich

[2] = molecular target: T2, α-Glucosidase (Saccharomyces cerevisiae, EC3.2.1.20) (Saccharomyces cerevisiae, UniProt P53341); test: In vitro α-glucosidase inhibition assay; format: biochemical
T2 construct: purchased Sigma-Aldrich
Protocol: α-Glucosidase (Saccharomyces cerevisiae, EC3.2.1.20, 20 U/mg) and the substrate, […] (p-NPG) were purchased from Sigma-Aldrich and the assay was performed exactly according to our previous report. In this respect, various concentrations of each synthesized compound dissolved in DMSO, were added to potassium phosphate buffer (50 mM, pH 6.8) including enzyme (at final concentration of 0.1 U/mL), in a 96-well plate. After a 10-min incubation at 37 °C, p-NPG was added to each well to achieve final concentration of 4 mM. Then, the plate was re-incubated at 37 °C for 20 min. It should be noted that the final concentration of DMSO in each enzymatic solution was 10%. Finally, the change in the absorbance was measured at 405 nm using spectrophotometer (Synergy HTX Multi-Mode Microplate Reader–BioTek, Germany). […] The percentage of inhibition for compounds and control was calculated using Eq. (1):1 Inhibition%=ODnegative control-ODsample/ODnegative control×100OD=optical density at 405 nm.
IC50 values were calculated from the nonlinear regression curve using the Logit method.

α-glucosidase [3] = molecular target: T1, α-glucosidase; test: Enzyme kinetic studies (Lineweaver–Burk plot); format: biochemical; settings: for Ki: p-NPG 2–16 mM
Excerpt: A Lineweaver–Burk plot was generated to identify the type of inhibition and the Michaelis–Menten constant.

α-glucosidase [4] = molecular target: T1, α-glucosidase; test: Fluorescence spectroscopy measurements; format: binding; settings: 9e 0–1.0 μM, excitation 280 nm, emission maximum 340 nm, phosphate buffer 50 mM pH 6.8
Protocol: Compound 9e at different concentrations (0–1.0 µM) was added into the 3 mL solution containing a fixed amount of α-glucosidase (0.1 U/mL). All mixtures were held for 10 min to equilibrate before measurements. Then, the fluorescence emission spectra were measured from 300 to 450 nm at the excitation wavelength of 280 nm on a Synergy HTX multi-mode reader (Biotek Instruments, Winooski, VT, USA) equipped with a 1.0 cm quartz cell holder. The fluorescence spectra of the buffer containing compound 9e in the absence of the enzyme were subtracted as the background fluorescence.

α-glucosidase [5] = molecular target: T1, α-glucosidase; test: Thermodynamic analysis (thermal denaturation followed by fluorescence)
Protocol: Thermodynamic analysis was performed as described by Mojtabavi et al., the fluorescent intensity data were plotted as a function of temperature, and the thermodynamic profile was computed[48],[49]. Therefore, the denatured fraction (FD) of protein was calculated from Eq. (2), assuming a two-state mechanism for the protein denaturation:2 FD=YN-Yobs/YN-YD.
In Eq. (2), Yobs, YN, and YD are the observed […] characteristics of a fully native and denatured conformation, respectively. Equation (3) was used to calculate the apparent equilibrium constant (K) for a reversible denaturation process between native and denatured protein states:3 K=FD/1-FD=Yobs-YD/YN-YD.
The standard Gibbs free energy change (ΔG°) for protein denaturation is given by the Eq. (4):4 ΔG^^∘=GD^∘-GN^∘=-RTlnK, where T and R are the absolute temperature and the universal gas constant, respectively. The Gibbs free energy (ΔG°) is the most valuable standard of protein conformational stability in thermal denaturation. The integrated Gibbs–Helmholtz equation was utilized for measuring changes in the Gibbs energy of a system as a function of temperature (Eq. (5)):5 ΔG^^∘=ΔHm^∘1-T/Tm-ΔCpTm-T+TLnT/Tm, where ΔCp is the heat capacity of protein denaturation. The ΔCp (11.6 kJ/mol K) of the α-glucosidase denaturation was taken from van der Kamp et al. report. In thermal denaturation, Tm is the temperature at which the protein is half denatured. ΔH°m and ΔS°m are the standard enthalpy and entropy of denaturation. The standard entropy was calculated from a relation between the standard […] of denaturation as bellow: ΔH=TmΔS.

T2 sequence (P53341 whole entry): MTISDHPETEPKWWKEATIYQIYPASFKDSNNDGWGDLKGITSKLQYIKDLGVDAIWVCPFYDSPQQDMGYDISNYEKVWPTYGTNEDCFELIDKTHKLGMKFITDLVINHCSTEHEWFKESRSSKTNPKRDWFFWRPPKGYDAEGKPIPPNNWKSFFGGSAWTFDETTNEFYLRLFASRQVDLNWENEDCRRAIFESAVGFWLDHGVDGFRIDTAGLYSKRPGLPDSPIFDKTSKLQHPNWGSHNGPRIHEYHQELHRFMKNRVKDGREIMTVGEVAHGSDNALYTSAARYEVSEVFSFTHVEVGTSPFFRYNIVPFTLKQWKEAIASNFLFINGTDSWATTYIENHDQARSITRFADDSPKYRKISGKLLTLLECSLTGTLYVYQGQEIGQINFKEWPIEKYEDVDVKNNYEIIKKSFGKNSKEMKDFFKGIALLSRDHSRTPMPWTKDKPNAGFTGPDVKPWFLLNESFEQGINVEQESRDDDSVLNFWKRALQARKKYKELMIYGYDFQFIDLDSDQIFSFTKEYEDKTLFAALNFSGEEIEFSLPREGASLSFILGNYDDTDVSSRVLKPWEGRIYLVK
T1 sequence (P53341 whole entry): as above

CCc1ccc(NC(=O)Cn2cc(COc3ccc(-c4nc5ccccc5[nH]4)cc3)nn2)cc1 [B]
mode of inhibition (α-glucosidase [1]): competitive

COc1cc(C=NNC(=O)CC#N)ccc1OCc1cn(Cc2ccccc2)nn1 [Compound 9a, N′-(4-((1-benzyl-1H-1,2,3-triazol-4-yl)methoxy)-3-methoxybenzylidene)-2-cyanoacetohydrazide]
IC50 [2]: > 750 µM

COc1cc(C=NNC(=O)CC#N)ccc1OCc1cn(Cc2ccccc2F)nn1 [Compound 9b, 2-Cyano-N′-(4-((1-(2-fluorobenzyl)-1H-1,2,3-triazol-4-yl)methoxy)-3-methoxybenzylidene)acetohydrazide]
type of inhibition (α-glucosidase [3]): uncompetitive inhibition; also recorded: uncompetitively
Ki (α-glucosidase [3]): 0.43 µM
IC50 [2]: 1.5 ± 0.01 µM

COc1cc(C=NNC(=O)CC#N)ccc1OCc1cn(Cc2ccc(F)cc2)nn1 [Compound 9c, 2-Cyano-N′-(4-((1-(4-fluorobenzyl)-1H-1,2,3-triazol-4-yl)methoxy)-3-methoxybenzylidene)acetohydrazide]
IC50 [2]: 9.73 ± 0.3 µM

COc1cc(C=NNC(=O)CC#N)ccc1OCc1cn(Cc2ccccc2Cl)nn1 [Compound 9d, N′-(4-((1-(2-chlorobenzyl)-1H-1,2,3-triazol-4-yl)methoxy)-3-methoxybenzylidene)-2-cyanoacetohydrazide]
IC50 [2]: 14 ± 0.8 µM

COc1cc(C=NNC(=O)CC#N)ccc1OCc1cn(Cc2ccc(Cl)cc2)nn1 [Compound 9e, N′-(4-((1-(4-chlorobenzyl)-1H-1,2,3-triazol-4-yl)methoxy)-3-methoxybenzylidene)-2-cyanoacetohydrazide]
type of inhibition (α-glucosidase [3]): uncompetitive inhibition; also recorded: uncompetitively
Ki (α-glucosidase [3]): 0.24 µM
IC50 [2]: 1 ± 0.01 µM
fold better potency than the standard drug acarbose [2]: 754 fold
change of α-glucosidase fluorescence (α-glucosidase [4]): significant increase in fluorescence intensity
Tm of α-glucosidase (α-glucosidase [5]; compound 9e 0.25 µM): 316 K
ΔHm° of α-glucosidase denaturation (α-glucosidase [5]; compound 9e 0.25 µM): 94.47 kJ/mol
ΔSm° of α-glucosidase denaturation (α-glucosidase [5]; compound 9e 0.25 µM): 298.95 J mol^−1 K^−1
Tm of α-glucosidase (α-glucosidase [5]; compound 9e 0.50 µM): 315 K
ΔHm° of α-glucosidase denaturation (α-glucosidase [5]; compound 9e 0.50 µM): 112.86 kJ/mol
ΔSm° of α-glucosidase denaturation (α-glucosidase [5]; compound 9e 0.50 µM): 358.28 J mol^−1 K^−1
Tm of α-glucosidase (α-glucosidase [5]; compound 9e 0.75 µM): 313 K
ΔHm° of α-glucosidase denaturation (α-glucosidase [5]; compound 9e 0.75 µM): 177.09 kJ/mol
ΔSm° of α-glucosidase denaturation (α-glucosidase [5]; compound 9e 0.75 µM): 565.76 J mol^−1 K^−1
Tm of α-glucosidase (α-glucosidase [5]; compound 9e 1.0 µM): 311 K
ΔHm° of α-glucosidase denaturation (α-glucosidase [5]; compound 9e 1.0 µM): 597.50 kJ/mol
ΔSm° of α-glucosidase denaturation (α-glucosidase [5]; compound 9e 1.0 µM): 1921.22 J mol^−1 K^−1

COc1cc(C=NNC(=O)CC#N)ccc1OCc1cn(Cc2ccccc2C)nn1 [Compound 9f, 2-Cyano-N′-(3-methoxy-4-((1-(2-methylbenzyl)-1H-1,2,3-triazol-4-yl)methoxy)benzylidene)acetohydrazide]
IC50 [2]: 28 ± 0.1 µM

COc1cc(C=NNC(=O)CC#N)ccc1OCc1cn(Cc2ccc(C)cc2)nn1 [Compound 9g, 2-Cyano-N′-(3-methoxy-4-((1-(4-methylbenzyl)-1H-1,2,3-triazol-4-yl)methoxy)benzylidene)acetohydrazide]
IC50 [2]: 22.8 ± 0.6 µM

N#CCC(=O)NN=Cc1ccc(OCc2cn(Cc3ccccc3)nn2)cc1 [Compound 9h, N′-(4-((1-benzyl-1H-1,2,3-triazol-4-yl)methoxy)benzylidene)-2-cyanoacetohydrazide]
IC50 [2]: 271.2 ± 0.3 µM

N#CCC(=O)NN=Cc1ccc(OCc2cn(Cc3ccccc3F)nn2)cc1 [Compound 9i, 2-Cyano-N′-(4-((1-(2-fluorobenzyl)-1H-1,2,3-triazol-4-yl)methoxy)benzylidene)acetohydrazide]
type of inhibition (α-glucosidase [3]): competitive inhibition
Ki (α-glucosidase [3]): 75 µM
IC50 [2]: 45.89 ± 0.1 µM

N#CCC(=O)NN=Cc1ccc(OCc2cn(Cc3ccc(F)cc3)nn2)cc1 [Compound 9j, 2-Cyano-N′-(4-((1-(4-fluorobenzyl)-1H-1,2,3-triazol-4-yl)methoxy)benzylidene)acetohydrazide]
IC50 [2]: 56.6 ± 0.7 µM

N#CCC(=O)NN=Cc1ccc(OCc2cn(Cc3ccccc3Cl)nn2)cc1 [Compound 9k, N′-(4-((1-(2-chlorobenzyl)-1H-1,2,3-triazol-4-yl)methoxy)benzylidene)-2-cyanoacetohydrazide]
IC50 [2]: 74.7 ± 2.8 µM

N#CCC(=O)NN=Cc1ccc(OCc2cn(Cc3ccc(Cl)cc3)nn2)cc1 [Compound 9l, N′-(4-((1-(4-chlorobenzyl)-1H-1,2,3-triazol-4-yl)methoxy)benzylidene)-2-cyanoacetohydrazide]
type of inhibition (α-glucosidase [3]): competitive inhibition
Ki (α-glucosidase [3]): 85 µM
IC50 [2]: 21.66 ± 0.12 µM

Cc1ccccc1Cn1cc(COc2ccc(C=NNC(=O)CC#N)cc2)nn1 [Compound 9m, 2-Cyano-N′-(4-((1-(2-methylbenzyl)-1H-1,2,3-triazol-4-yl)methoxy)benzylidene)acetohydrazide]
IC50 [2]: 11.3 ± 0.2 µM

Cc1ccc(Cn2cc(COc3ccc(C=NNC(=O)CC#N)cc3)nn2)cc1 [Compound 9n, 2-Cyano-N′-(4-((1-(4-methylbenzyl)-1H-1,2,3-triazol-4-yl)methoxy)benzylidene)acetohydrazide]
IC50 [2]: 82.4 ± 1.3 µM

O=c1oc2ccccc2c(O)c1C(c1ccc(OCc2cn(Cc3ccccc3Cl)nn2)cc1)c1c(O)c2ccccc2oc1=O [Compound A]
mode of inhibition (α-glucosidase [1]): competitive

O=C1Nc2ccccc2/C1=N/N=C/c1ccc(OCc2cn(Cc3ccccc3F)nn2)cc1 [Compound C]
fold improvement in the inhibitory activity compared to acarbose (α-glucosidase [1]): 46 fold
